In patent US20250186448A1 (Mezzion Pharma Co., Ltd., priority 2021, published 2025):
Entries after “also recorded” stand apart in the source; their conditions may differ.

What was measured:
[1] = test system: adolescents with Fontan physiology; experiment: FUEL trial: echocardiographic myocardial performance index (MPI), blood pool Doppler; type: in vivo, human
Excerpt: Generally speaking, MPI (also referred to as the Doppler-derived index or Tei Index) is a measure of ventricular systolic and diastolic function as determined by a focused echocardiogram. It combines systolic and diastolic time intervals to assess heart function. More specifically, MPI can be used to assess ventricular performance represented by a numeric value using cardiac time intervals. This numeric value equals the sum of isovolumetric contraction time (ICT) and isovolumetric relaxation time (IRT) divided by ejection time (ET) and can be determined for either the left or right ventricle. Pellett, A. A., et al.: The Tei Index: Methodology and Disease. State Values. Echocardiography: A Jrnl. of CV Ultrasound & Allied Tech. 21(7):669-672 (2004); and Uluçay, A., Tatli E.: Myocardial performance index. Anadolu Kardiyol Derg. 8(2):143-8 (April, 2008), both of which are incorporated herein by reference in their entireties. In the FUEL Trial, the MPI measured the performance of the single functioning ventricle. Thus, the MPI results from the FUEL Trial were determined by velocities obtained from blood pool Doppler assessment of the inflow and outflow tract of the functioning single ventricle. In other words, the FUEL Trial MPI was determined by measuring the cardiac time intervals using pulsed-wave Doppler velocity spectra of the ventricular inflow and outflow of the single functioning ventricle.
Echocardiograms were performed by sonographers with specific training for this protocol. The primary outcome of interest was MPI using Doppler-based measures of inflow and outflow duration. The duration of inflow into the dominant ventricle and outflow across the dominant semilunar valve were measured and used to calculate MPI using the standard formula. Tei C, Ling L H, Hodge D O, et al.: New index of combined systolic and diastolic myocardial performance: a simple and reproducible measure of cardiac function—a study in normal and dilated cardiomyopathy. J Cardiol, 26(6):357-66 (1995); and Pellet A A et al.: The Tei Index: Methodology and Disease State Values. Echocardiography: A Jrnl Of CV Ultrasound & Allied Tech, 21(7):669-672 (2004). Additional tissue Doppler images were obtained and used to calculate the tissue Doppler based MPI as previously described. Harada K, Tamura M, Toyono M et al.: Comparison of the right ventricular Tei index by tissue Doppler imaging to that obtained by pulsed Doppler in children without heart disease. Am J Cardiol, 90(5):566-9 (2002). Whenever possible, three measurements were made and the mean duration was used for the calculation.
The primary outcome was the change in oxygen consumption at peak exercise (max or peak VO2) from baseline to the 26-week visit. Secondary exercise outcomes included change in additional measures at maximal exertion, as well as change in measures of submaximal exercise at the ventilatory anaerobic threshold (VAT). […] Safety was monitored through adverse event reports, which were collected according to a pre-specified protocol of study coordinator outreach, and through ad hoc patient and family communication with members of the study team at each site.
Each subject underwent an echocardiogram at the start and finish of the 26 weeks. […] The change in the MPI was determined by velocities obtained from blood pool Doppler assessment of the inflow and outflow tract of the single functioning dominant ventricle. […]

[2] = test system: adolescents with Fontan physiology; experiment: FUEL trial: peripheral arterial tonometry (EndoPAT), log-transformed reactive hyperemia index (lnRHI); type: in vivo, human
Excerpt: Pulse amplitude tonometry (PAT), a FDA-approved method for assessing vascular function, is increasingly being used as an alternative measure of endothelium-dependent dilation in response to reactive hyperemia and flow-mediated dilation (FMD). The PAT device records digital pulse wave amplitude (PWA) using fingertip plethysmography. PWA can be measured continuously during three phases: a quiet baseline period, 5-min forearm occlusion, and reactive hyperemia following cuff release. Unlike FMD, PAT testing is not dependent upon a highly skilled technician and post-test analysis is largely automated. […]
The primary outcome was the change in oxygen consumption at peak exercise (max or peak VO2) from baseline to the 26-week visit. […] Safety was monitored through adverse event reports, which were collected according to a pre-specified protocol of study coordinator outreach, and through ad hoc patient and family communication with members of the study team at each site.
Baseline clinical testing completed before drug initiation included a blood draw to measure brain-type natriuretic peptide (BNP) level, a cardiopulmonary exercise test (CPET) using a standardized cycle ergometer ramp protocol, a standardized echocardiogram, and an assessment of peripheral vascular function using peripheral arterial tonometry (PAT) measured by finger cuff (EndoPAT; Itamar Medical, Israel). […]

For `CCCOc1ccc(S(=O)(=O)NCCC2CCCN2C)cc1-c1nc2c(CCC)nn(C)c2c(=O)[nH]1` (stereo not drawn) [Udenafil, udenafil], the “MPI difference, Week 26 - Baseline, mean” value ([1]; 87.5 mg twice daily, paired data, decrease shows improvement, p 0.028 vs placebo) was 122: −0.02, the “MPI, LS Mean Dif A − B (udenafil − placebo)” value ([1]; Baseline, p 0.818) was −0.0 and the “MPI, LS Mean Dif A − B (udenafil − placebo)” value ([1]; Week 26, p 0.024) was −0.04. For the same molecule, the “MPI, LS Mean Dif A − B (udenafil − placebo) of difference Week 26 - Baseline” value ([1]; p 0.028) was −0.03, the “MPI, udenafil treated group compared to placebo” value ([1]; p=0.028) was “statistically significant improvement” and the “Change in lnRHI (PAT outcome), udenafil vs placebo” value [2] was “no difference; also recorded: did not reveal a benefit”.
